Source: US9902728B2, “Pyrrolo and pyrazolopyrimidines as ubiquitin-specific protease 7 inhibitors” (Forma Therapeutics, Inc., priority 2014, dated 2018)

Each compound was assayed against T1, USP7 (Homo sapiens, UniProt Q93009) (assay: USP7 Assay A (Ubitquin-Rhodamine 110 Assay)). Details: USP7 activity in USP7 assay A and B (table does not say which assay per compound); read-out: USP7_IC50.
T1 construct: USP7, construct USP7 (208-1102) 6*His, Viva Biotech; 6xHis (C); purchased Viva Biotech
Format: biochemical
Procedure, shortened: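 Enzyme and compound sat together for 30 min before Ub-Rh110 was added, in buffer of 20 mM Tris-HCl (pH 8.0), 1 mM GSH, 0.03% BGG and 0.01% Triton X-100.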

T1 sequence (Q93009 208-1102): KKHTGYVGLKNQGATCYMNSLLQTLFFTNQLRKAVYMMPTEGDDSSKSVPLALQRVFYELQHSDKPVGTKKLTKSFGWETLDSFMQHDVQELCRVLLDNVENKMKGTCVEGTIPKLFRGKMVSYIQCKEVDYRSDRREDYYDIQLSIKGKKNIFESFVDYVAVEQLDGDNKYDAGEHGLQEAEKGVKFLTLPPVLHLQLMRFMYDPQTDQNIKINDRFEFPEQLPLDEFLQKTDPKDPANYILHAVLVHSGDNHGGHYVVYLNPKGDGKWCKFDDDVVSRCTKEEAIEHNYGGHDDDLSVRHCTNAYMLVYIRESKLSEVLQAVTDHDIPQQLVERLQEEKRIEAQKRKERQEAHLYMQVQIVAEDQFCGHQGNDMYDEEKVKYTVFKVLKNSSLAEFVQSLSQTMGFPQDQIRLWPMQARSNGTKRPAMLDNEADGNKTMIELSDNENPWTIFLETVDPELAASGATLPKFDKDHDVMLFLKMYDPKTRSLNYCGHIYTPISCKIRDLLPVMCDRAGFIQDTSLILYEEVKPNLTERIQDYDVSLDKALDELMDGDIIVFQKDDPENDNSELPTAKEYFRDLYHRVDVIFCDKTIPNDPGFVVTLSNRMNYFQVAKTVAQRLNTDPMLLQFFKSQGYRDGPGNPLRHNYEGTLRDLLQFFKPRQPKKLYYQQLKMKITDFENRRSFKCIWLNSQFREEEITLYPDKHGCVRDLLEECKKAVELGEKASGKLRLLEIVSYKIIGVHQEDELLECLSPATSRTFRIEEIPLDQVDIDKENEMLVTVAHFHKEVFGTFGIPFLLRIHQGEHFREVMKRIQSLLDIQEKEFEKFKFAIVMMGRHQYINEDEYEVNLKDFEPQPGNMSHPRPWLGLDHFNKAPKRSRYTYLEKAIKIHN

SMILES	IC50
CC1(C(=O)N2CCC(O)(Cn3cnc4c(cnn4-c4cccc(-n5ccc(F)n5)c4)c3=O)CC2)CC1 [Compound I-1042]	200 to 1000 nM
CC1(C(=O)N2CCC(O)(Cn3cnc4c(cnn4-c4ccc(-n5cc(C(F)(F)F)cn5)cc4)c3=O)CC2)CC1 [Compound I-1043]	200 to 1000 nM
CC1(C(=O)N2CCC(O)(Cn3cnc4c(cnn4-c4ccc(-n5cc(Cl)cn5)cc4)c3=O)CC2)CC1 [Compound I-1045]	< 200 nM
CC1(C(=O)N2CCC(O)(Cn3cnc4c(cnn4-c4cccc(OCC5CC(F)(F)C5)c4)c3=O)CC2)CC1 [Compound I-1046, 1-(3-((3,3-difluorocyclobutyl)methoxy)phenyl)-5-((4-hydroxy-1-(1-methylcyclopropane-1-carbonyl)piperidin-4-yl)methyl)-1,5-dihydro-4H-pyrazolo[3,4-d]pyrimidin-4-one]	200 to 1000 nM
CC1(C(=O)N2CCC(O)(Cn3cnc4c(cnn4-c4cccc(OC5CCC(F)(F)CC5)c4)c3=O)CC2)CC1 [Compound I-1047]	< 200 nM
C[C@@H](CC(=O)N1CCC(O)(Cn2cnc3c(cnn3-c3ccc(N4CC[C@@](C)(O)C4)cc3)c2=O)CC1)n1cccn1 [Compound I-1052]	200 to 1000 nM
Cn1ccc(OC2CCC(C(=O)N3CCC(O)(Cn4cnc5c(ccn5-c5ccc(F)cc5)c4=O)CC3)CC2)n1 (centres unmarked) [Compound I-1067]	200 to 1000 nM
O=C(C1CCC(NC2CC2)CC1)N1CCC(O)(Cn2cnc3c(cnn3-c3ccc(F)cc3)c2=O)CC1 (centres unmarked) [Compound I-1072]	1000 to 10000 nM
O=C(NC1CCC(C(=O)N2CCC(O)(Cn3cnc4c(cnn4-c4ccc(F)cc4)c3=O)CC2)CC1)C1CC1 (centres unmarked) [Compound I-1075]	1000 to 10000 nM
Cc1ncc(C(=O)N2CCC(O)(Cn3cnc4c(ccn4-c4ccc(F)cc4)c3=O)CC2)o1 [Compound I-1077]	200 to 1000 nM
Cn1cc(C(=O)N2CCC(O)(Cn3cnc4c(ccn4-c4ccc(F)cc4)c3=O)CC2)cn1 [Compound I-1078]	200 to 1000 nM
O=C(c1cnn(C2CC2)c1)N1CCC(O)(Cn2cnc3c(ccn3-c3ccc(F)cc3)c2=O)CC1 [Compound I-1079]	200 to 1000 nM
CN1CCN(c2ncc(C(=O)N3CCC(O)(Cn4cnc5c(cnn5-c5ccc(Cl)cc5)c4=O)CC3)o2)CC1 [Compound I-1085]	1000 to 10000 nM
O=C(c1cnc(Oc2ccccn2)o1)N1CCC(O)(Cn2cnc3c(cnn3-c3ccc(Cl)cc3)c2=O)CC1 [Compound I-1086]	1000 to 10000 nM
O=C(c1ccc(-n2cnnn2)cc1)N1CCC(O)(Cn2cnc3c(cnn3-c3ccc(Cl)cc3)c2=O)CC1 [Compound I-1087]	200 to 1000 nM
O=C(c1ccc(-n2ccnc2)cc1)N1CCC(O)(Cn2cnc3c(cnn3-c3ccc(Cl)cc3)c2=O)CC1 [Compound I-1088]	200 to 1000 nM
Cc1nnnn1-c1ccc(C(=O)N2CCC(O)(Cn3cnc4c(cnn4-c4ccc(Cl)cc4)c3=O)CC2)cc1 [Compound I-1089]	200 to 1000 nM
O=C(c1ccc(-n2cncn2)cc1)N1CCC(O)(Cn2cnc3c(cnn3-c3ccc(Cl)cc3)c2=O)CC1 [Compound I-1090]	200 to 1000 nM
O=C(c1nnc(C2CC2)o1)N1CCC(O)(Cn2cnc3c(cnn3-c3ccc(Cl)cc3)c2=O)CC1 [Compound I-1091]	1000 to 10000 nM
O=C(c1cn(C2CC2)cn1)N1CCC(O)(Cn2cnc3c(cnn3-c3ccc(Cl)cc3)c2=O)CC1 [Compound I-1092]	1000 to 10000 nM
O=C(c1ccn(C2CC2)n1)N1CCC(O)(Cn2cnc3c(cnn3-c3ccc(Cl)cc3)c2=O)CC1 [Compound I-1093]	1000 to 10000 nM
O=C(c1cnn(C2CC2)c1)N1CCC(O)(Cn2cnc3c(cnn3-c3ccc(Cl)cc3)c2=O)CC1 [Compound I-1095]	200 to 1000 nM

SMILES	IC50
CN1CCC(Oc2ccc(C(=O)N3CCC(O)(Cn4cnc5c(cnn5-c5ccc(Cl)cc5)c4=O)CC3)cc2)CC1 [Compound I-1096]	1000 to 10000 nM
Cc1cnc(-c2ccc(C(=O)N3CCC(O)(Cn4cnc5c(cnn5-c5ccc(Cl)cc5)c4=O)CC3)cc2)n1C [Compound I-1099]	1000 to 10000 nM
Cc1ncc(-c2ccc(C(=O)N3CCC(O)(Cn4cnc5c(cnn5-c5ccc(Cl)cc5)c4=O)CC3)cc2)n1C [Compound I-1101]	1000 to 10000 nM
O=C(c1ocnc1Cc1ccccc1)N1CCC(O)(Cn2cnc3c(cnn3-c3ccccc3)c2=O)CC1 [Compound I-1108]	> 10000 nM
Cc1snc(Cc2ccccc2)c1C(=O)N1CCC(O)(Cn2cnc3c(cnn3-c3ccc(F)cc3)c2=O)CC1 [Compound I-1110]	< 200 nM
O=C(C1CCC(OC(F)F)CC1)N1CCC(O)(Cn2cnc3c(cnn3-c3ccc(F)cc3)c2=O)CC1 (centres unmarked) [Compound I-1112]	1000 to 10000 nM
O=C(C1CCC(Oc2cnccn2)CC1)N1CCC(O)(Cn2cnc3c(cnn3-c3ccc(F)cc3)c2=O)CC1 (centres unmarked) [Compound I-1113]	< 200 nM
Cn1nccc1OC1CCC(C(=O)N2CCC(O)(Cn3cnc4c(cnn4-c4ccc(F)cc4)c3=O)CC2)CC1 (centres unmarked) [Compound I-1114]	1000 to 10000 nM
CC1(COc2ccc(-n3ncc4c(=O)n(CC5(O)CCN(C(=O)C6(C)CC6)CC5)cnc43)cc2)COC1 [Compound I-1118]	< 200 nM
CC1(C(=O)N2CCC(O)(Cn3cnc4c(cnn4-c4ccc(OCC5(F)CCC5)cc4)c3=O)CC2)CC1 [Compound I-1119]	< 200 nM
O=C(C1CCC(Oc2ccccn2)CC1)N1CCC(O)(Cn2cnc3c(ccn3-c3ccc(F)cc3)c2=O)CC1 (centres unmarked) [Compound I-1124]	< 200 nM
O=C(C[C@H](C(F)F)n1ccc(F)n1)N1CCC(O)(Cn2cnc3c(ccn3-c3ccc(F)cc3)c2=O)CC1 [Compound I-1125]	200 to 1000 nM
O=C(C[C@@H](C(F)F)n1ccc(F)n1)N1CCC(O)(Cn2cnc3c(ccn3-c3ccc(F)cc3)c2=O)CC1 [Compound I-1126]	< 200 nM
O=C(C[C@H](C(F)F)n1cccn1)N1CCC(O)(Cn2cnc3c(cnn3-c3ccc(Cl)cc3)c2=O)CC1 [Compound I-1131]	1000 to 10000 nM
O=C(C[C@@H](C(F)F)n1cccn1)N1CCC(O)(Cn2cnc3c(cnn3-c3ccc(Cl)cc3)c2=O)CC1 [Compound I-1132]	200 to 1000 nM
CC1(C(=O)N2CCC(O)(Cn3cnc4c(cnn4-c4ccc(OCC5CC(F)(F)C5)cc4)c3=O)CC2)CC1 [Compound I-1133]	< 200 nM
Cc1ncc(C(=O)N2CCC(O)(Cn3cnc4c(cnn4-c4ccc(OC5CCC(F)(F)CC5)cc4)c3=O)CC2)o1 [Compound I-1134]	200 to 1000 nM
Cc1ncc(C(=O)N2CCC(O)(Cn3cnc4c(cnn4-c4ccc(OCC5(F)CCC5)cc4)c3=O)CC2)o1 [Compound I-1135]	< 200 nM
CC1(COc2ccc(-n3ncc4c(=O)n(CC5(O)CCN(C(=O)C6(C)CCC6)CC5)cnc43)cc2)COC1 [Compound I-1136]	< 200 nM
CC1(C(=O)N2CCC(O)(Cn3cnc4c(cnn4-c4ccc(OCC5(F)CCC5)cc4)c3=O)CC2)CCC1 [Compound I-1137]	< 200 nM
Cc1ccc(-n2ncc3c(=O)n(CC4(O)CCN(C(=O)c5ccc(Cl)cc5N)CC4)cnc32)cc1 [Compound I-1140]	200 to 1000 nM

Same assay, conditions: USP7 assay A and B (table does not say which assay per compound); read-out: USP7_IC50

SMILES	IC50
Cc1ccc(-n2ncc3c(=O)n(CC4(O)CCN(C(=O)c5ccc(OC(F)F)cc5)CC4)cnc32)cc1 [Compound I-1058]	200 to 1000 nM
Cc1ccc(-n2ncc3c(=O)n(CC4(O)CCN(C(=O)C[C@H](C(F)F)n5cccn5)CC4)cnc32)cc1 [Compound I-1060]	< 200 nM
Cc1ccc(-n2ncc3c(=O)n(CC4(O)CCN(C(=O)C[C@@H](C(F)F)n5cccn5)CC4)cnc32)cc1 [Compound I-1061]	1000 to 10000 nM
Cc1ccc(-n2ncc3c(=O)n(CC4(O)CCN(C(=O)c5ccc(Oc6ncccn6)cc5)CC4)cnc32)cc1 [Compound I-1063]	200 to 1000 nM
O=C(C1CC1)N1CCC(O)(Cn2cnc3c(cnn3-c3ccc(N4CCCc5ccccc54)cc3)c2=O)CC1 [Compound I-1082]	1000 to 10000 nM
O=C(CC(c1ccccc1)C(F)F)N1CCC(O)(Cn2cnc3c(cnn3-c3ccccc3)c2=O)CC1 (centres unmarked) [Compound I-1102]	< 200 nM
O=C(C[C@@H](c1ccccc1)C(F)F)N1CCC(O)(Cn2cnc3c(cnn3-c3ccccc3)c2=O)CC1 [Compound I-1103]	< 200 nM
O=C(C[C@H](c1ccccc1)C(F)F)N1CCC(O)(Cn2cnc3c(cnn3-c3ccccc3)c2=O)CC1 [Compound I-1104]	1000 to 10000 nM
O=C(c1cccc(CN2CCCC2)c1)N1CCC(O)(Cn2cnc3c(cnn3-c3ccc(Cl)cc3)c2=O)CC1 [Compound I-1127]	1000 to 10000 nM
O=C(c1ccc(-n2ccnn2)cc1)N1CCC(O)(Cn2cnc3c(cnn3-c3ccc(Cl)cc3)c2=O)CC1 [Compound I-1128]	200 to 1000 nM
O=C(c1ccc(-n2nccn2)cc1)N1CCC(O)(Cn2cnc3c(cnn3-c3ccc(Cl)cc3)c2=O)CC1 [Compound I-1129]	1000 to 10000 nM
O=C(c1cnc(C2CC2)o1)N1CCC(O)(Cn2cnc3c(cnn3-c3ccc(Cl)cc3)c2=O)CC1 [Compound I-1130]	200 to 1000 nM
CO[C@@H]1CCN(c2ccc(-n3ncc4c(=O)n(CC5(O)CCN(C(=O)N(C)C)CC5)cnc43)cc2)C1 [Compound I-1138]	1000 to 10000 nM
Cc1ccc(-n2ncc3c(=O)n(CC4(O)CCN(C(=O)C[C@H](C)c5ccccc5)CC4)cnc32)cc1 [Compound I-1139]	< 200 nM
Cc1ccc(-n2ncc3c(=O)n(CC4(O)CCN(C(=O)c5ccc(OC6CCC(O)CC6)cc5)CC4)cnc32)cc1 (centres unmarked) [Compound I-1141, 5-((4-Hydroxy-1-(4-(4-hydroxycyclohexyloxy)benzoyl)piperidin-4-yl)methyl)-1-p-tolyl-1H-pyrazolo[3,4-d]pyrimidin-4 (5H)-one]	1000 to 10000 nM
Cc1ccc(-n2ncc3c(=O)n(CC4(O)CCN(C(=O)c5ccc(OC6CN(C)C6)cc5)CC4)cnc32)cc1 [Compound I-1142]	1000 to 10000 nM
Cc1ccc(-n2ncc3c(=O)n(CC4(O)CCN(C(=O)c5ccc(OC6CCOCC6)cc5)CC4)cnc32)cc1 [Compound I-1144]	1000 to 10000 nM
Cc1ccc(-n2ncc3c(=O)n(CC4(O)CCN(C(=O)c5ccc(OC6CCNCC6)cc5)CC4)cnc32)cc1 [Compound I-1145]	1000 to 10000 nM
O=C(C1CC1)N1CCC(O)(Cn2cnc3c(cnn3-c3ccc(NCCN4CCCCC4)cc3)c2=O)CC1 [Compound I-1146]	200 to 1000 nM
